From ChEMBL document CHEMBL4251589, “4-Quinolone derivatives and their activities against Gram positive pathogens” (2018)
≈ marks a conversion by molar mass, not a printed value. Blank lines part the entries; values can stand above or below the compound they belong to.

Tests used:
Assay type in all cases: functional
[1] = test system: Staphylococcus epidermidis; assay: Potency index, ratio of CPFX MIC to compound MIC for Staphylococcus epidermidis
[2] = test system: Staphylococcus aureus; assay: Potency index, ratio of enoxacin MIC to compound MIC for Staphylococcus aureus ATCC 6538P
[3] = test system: Staphylococcus aureus; assay: Potency index, ratio of CPFX MIC to compound MIC for Staphylococcus aureus ATCC 6538P
[4] = test system: Staphylococcus epidermidis; assay: Potency index, ratio of NRFX MIC to compound MIC for Staphylococcus epidermidis
[5] = test system: Staphylococcus epidermidis; assay: Potency index, ratio of enoxacin MIC to compound MIC for Staphylococcus epidermidis
[6] = test system: Staphylococcus aureus; assay: Antibacterial activity against Staphylococcus aureus ATCC 6538P after 18 hrs by agar dilution assay
[7] = test system: Staphylococcus aureus; assay: Potency index, ratio of NRFX MIC to compound MIC for Staphylococcus aureus ATCC 6538P
[8] = test system: Staphylococcus epidermidis; assay: Antibacterial activity against Staphylococcus epidermidis after 18 hrs by agar dilution assay
[9] = test system: Staphylococcus aureus; assay: Potency index, ratio of NRFX MIC to compound MIC for Staphylococcus aureus
[10] = test system: Staphylococcus aureus; assay: Potency index, ratio of GTFX MIC to compound MIC for Staphylococcus aureus
[11] = test system: Staphylococcus aureus; assay: Potency index, ratio of LMFX MIC to compound MIC for Staphylococcus aureus
[12] = test system: Staphylococcus aureus; assay: Antibacterial activity against Staphylococcus aureus
[13] = test system: Staphylococcus aureus; assay: Potency index, ratio of CPFX MIC to compound MIC for Staphylococcus aureus
[14] = test system: Staphylococcus aureus; assay: Potency index, ratio of CPFX MIC to compound MIC for Staphylococcus aureus 1199-3
[15] = test system: Staphylococcus aureus; assay: Potency index, ratio of CPFX MIC to compound MIC for Staphylococcus aureus 1199
[16] = test system: Staphylococcus aureus; assay: Potency index, ratio of CPFX MIC to compound MIC for Staphylococcus aureus 1199B
[17] = test system: Staphylococcus aureus; assay: Selectivity ratio of MIC for Staphylococcus aureus 209P JC1 to MIC for methicillin-resistant Staphylococcus aureus
[18] = Selectivity ratio of MIC for Micrococcus luteus ATCC 9341 to MIC for methicillin-resistant Staphylococcus aureus
[19] = test system: Staphylococcus aureus; assay: Antibacterial activity against vancomycin-resistant Staphylococcus aureus GISA 992
[20] = test system: Staphylococcus aureus; assay: Antibacterial activity against Staphylococcus aureus 1199-3
[21] = test system: Staphylococcus aureus; assay: Antibacterial activity against Staphylococcus aureus 1199B
[22] = test system: Staphylococcus aureus; assay: Antibacterial activity against methicillin-resistant Staphylococcus aureus 494
[23] = test system: Staphylococcus aureus; assay: Antibacterial activity against Staphylococcus aureus 1199

Structure (SMILES): CCn1cc(C(=O)O)c(=O)c2cc(F)c(N3CCNCC3)cc21 [NORFLOXACIN]
MIC [12]: 0.02 to 39.06 µg/mL
MIC [6]: 0.25 to 1 µg/mL (≈ 0.783 to 3.13 µM)
MIC [8]: 0.25 to 1 µg/mL (≈ 0.783 to 3.13 µM)

Structure (SMILES): CCn1cc(C(=O)O)c(=O)c2cnc(N3CCN(Cc4ccc(CN5CCN(c6cc7c(cc6F)c(=O)c(C(=O)O)cn7C6CC6)CC5)cc4)CC3)nc21
Ratio [14]: >4
Ratio [15]: >4
Ratio [16]: >4

Structure (SMILES): C=c1sc2c(C(=O)O)c(=O)c3cc(F)c(-c4ccc(N)cc4)cc3n12
Ratio [17]: >=16
Ratio [18]: > 16

Structure (SMILES): O=C(O)c1cn(C2CC2)c2cc(N3CCNCC3)c(F)cc2c1=O [CIPROFLOXACIN]
MIC [19]: 0.125 to 32 µg/mL (≈ 0.377 to 96.6 µM)
MIC [12]: 0.02 to 39.06 µg/mL
MIC [6]: 0.25 to 1 µg/mL (≈ 0.754 to 3.02 µM)
MIC [8]: 0.25 to 1 µg/mL (≈ 0.754 to 3.02 µM)
MIC [20]: 0.125 to 32 µg/mL (≈ 0.377 to 96.6 µM)
MIC [21]: 0.125 to 32 µg/mL (≈ 0.377 to 96.6 µM)
MIC [22]: 0.125 to 32 µg/mL (≈ 0.377 to 96.6 µM)
MIC [23]: 0.125 to 32 µg/mL (≈ 0.377 to 96.6 µM)

Continued, in another order:

MIC [6]: 0.008 µg/mL (≈ 0.0148 µM)
MIC [8]: 0.008 µg/mL (≈ 0.0148 µM)
Structure (SMILES): Cn1c([N+](=O)[O-])cnc1-c1nnc(N2CCN(c3cc4c(cc3F)c(=O)c(C(=O)O)cn4C3CC3)CC2)s1
Ratio [1]: 32 - 128
Ratio [2]: 32 - 128
Ratio [3]: 32 - 128
Ratio [4]: 32 - 128
Ratio [5]: 32 - 128
Ratio [7]: 32 - 128

MIC ([12]; Staphylococcus aureus, read-out: MIC): 0.0095 µg/mL (≈ 0.0119 µM)
Structure (SMILES): CCn1cc(C(=O)O)c(=O)c2cc(F)c(N3CCN(CN4C(=O)/C(=N\c5ncc(Cc6cc(OC)c(OC)c(OC)c6)c(N)n5)c5cc(F)ccc54)C(C)C3)c(F)c21 (stereo unspecified)
Ratio [9]: 2 - 4111
Ratio [10]: 2 - 4111
Ratio [11]: 2 - 4111
Ratio [13]: 2 - 4111

MIC [12]: 0.02 to 39.06 µg/mL
Structure (SMILES): COc1c(N2CCNC(C)C2)c(F)cc2c(=O)c(C(=O)O)cn(C3CC3)c12 (stereo unspecified) [GATIFLOXACIN]

MIC [12]: 0.02 to 39.06 µg/mL
Structure (SMILES): CCn1cc(C(=O)O)c(=O)c2cc(F)c(N3CCNC(C)C3)c(F)c21 (stereo unspecified) [LOMEFLOXACIN]
